Among the data in patent US20110212080A1, “UREA DERIVATIVES AS ANTIBACTERIAL AGENTS” (priority 2008, published 2011) are IC50 values, retold here.

This assay concerns the target T1, LpxC enzyme (Escherichia coli, UniProt P0A725).
T1 sequence (P0A725 1-305): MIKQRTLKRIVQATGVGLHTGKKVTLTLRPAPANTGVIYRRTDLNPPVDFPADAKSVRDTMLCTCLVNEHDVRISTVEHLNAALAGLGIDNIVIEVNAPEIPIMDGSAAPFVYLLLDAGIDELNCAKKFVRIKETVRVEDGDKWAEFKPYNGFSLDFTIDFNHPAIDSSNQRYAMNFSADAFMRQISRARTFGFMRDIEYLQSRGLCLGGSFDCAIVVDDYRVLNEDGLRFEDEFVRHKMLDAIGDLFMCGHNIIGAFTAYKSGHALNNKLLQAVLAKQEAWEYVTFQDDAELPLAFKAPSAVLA
The assay is described as follows: standard LpxC assay (RapidFire high-throughput mass spectrometry). Type of assay: biochemical. The note with it: 1.0 μM UDP-3-O-(R-3-hydroxymyristoyl)-N-acetylglucosamine, 60 minutes at room temperature, 2% DMSO; read-out: E.coli IC50. The protocol: The standard LpxC assay consists of […] LpxC enzyme, 1.0 μM UDP-3-O-(R-3-hydroxymyristoyl)-N-acetylglucosamine, and test compound, in assay buffer and 2% DMSO. Assay buffer is comprised of 25 mM HEPES, pH 7.3, 150 mM NaCl, 2.0 mM DTT, and 0.01% BSA. The enzyme reaction is carried out in a 96-well assay plate, in a final volume of 102 μL. Solutions of rest compounds are prepared in 100% DMSO. Reaction additions, in order, are (1) 2.0 μL compound solution, (2) 80 μL of assay buffer, (3) 10 μL of 10 μM UDP-3-O-(R-3-hydroxymyristoyl)-N-acetylgucosamine (in assay buffer) and, (4) 10 μL of LpxC enzyme (20 nM in assay buffer) to initiate the reaction. In positive control reactions, addition (1) has 2.0 μL of 100% DMSO (without compound); these reactions are used as the total signal (TSB) value. Reactions are incubated at room temperature for 60 minutes when 10 μL of 1 N HCl is added to stop the reaction. The plate is shaken by hand for 10 seconds to ensure complete quenching. […]
The concentrations of substrate and product in the reaction mixtures are determined with BioTrove's proprietary RapidFire™ high-throughput mass spectrometry (HTMS). […] The mass spectrometry peak areas of the substrate and product are measured to determine the concentration of these analytes. […] Percent inhibition, % I, in test samples is determined from the following equation: […]

Structures are written as SMILES.

By IC50 is commonly meant the concentration that inhibits the measured activity by half. On to `C[C@@H](O)[C@@H](NC(=O)N1CCCC(c2ccc(C#Cc3ccccc3)cc2)C1)C(=O)NO` (some centres unmarked) [Compound 41], for which the IC50 was 50 to 500 nM.
On to `C[C@@H](NC(=O)N[C@@H](C(=O)NO)[C@@H](C)O)c1ccc(-n2cccn2)cc1` [Compound 46], for which the concentration for half-maximal inhibition (IC50) lay in the range of 5000 to 10000 nM.
